Assay results from PubChem BioAssay (NCI).
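Where inhibition never reached the appropriate level, the endpoint shown equals the highest concentration tested. Otherwise, values were interpolated linearly from a five-concentration, 48-hour dose response in 96-well plates. TGI is the concentration that stops growth completely.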

Legend:
Assay in all cases: NCI anticancer screen, dose series, 48 h
786-0 renal = system: 786-0 renal
A498 renal = system: A498 renal
A549 NSCLC = system: A549 NSCLC
ACHN renal = system: ACHN renal
BT-549 breast = system: BT-549 breast
CAKI-1 renal = system: CAKI-1 renal
CCRF-CEM leukemia = system: CCRF-CEM leukemia
COLO 205 colon = system: COLO 205 colon
DU-145 prostate = system: DU-145 prostate
EKVX NSCLC = system: EKVX NSCLC
HCC-2998 colon = system: HCC-2998 colon
HCT-116 colon = system: HCT-116 colon
HCT-15 colon = system: HCT-15 colon
HL-60(TB) leukemia = system: HL-60(TB) leukemia
HOP-62 NSCLC = system: HOP-62 NSCLC
HOP-92 NSCLC = system: HOP-92 NSCLC
HS 578T breast = system: HS 578T breast
HT29 colon = system: HT29 colon
IGROV1 ovarian = system: IGROV1 ovarian
K-562 leukemia = system: K-562 leukemia
KM12 colon = system: KM12 colon
LOX IMVI melanoma = system: LOX IMVI melanoma
M14 melanoma = system: M14 melanoma
MALME-3M melanoma = system: MALME-3M melanoma
MCF7 breast = system: MCF7 breast
MDA-MB-231 breast = system: MDA-MB-231 breast
MDA-MB-435 = system: MDA-MB-435
MDA-N = system: MDA-N
MOLT-4 leukemia = system: MOLT-4 leukemia
NCI-H226 lung = system: NCI-H226 lung
NCI-H23 lung = system: NCI-H23 lung
NCI-H460 lung = system: NCI-H460 lung
NCI-H522 lung = system: NCI-H522 lung
NCI/ADR-RES ovarian = system: NCI/ADR-RES ovarian
OVCAR-3 ovarian = system: OVCAR-3 ovarian
OVCAR-4 ovarian = system: OVCAR-4 ovarian
OVCAR-5 ovarian = system: OVCAR-5 ovarian
OVCAR-8 ovarian = system: OVCAR-8 ovarian
PC-3 prostate = system: PC-3 prostate
RPMI-8226 leukemia = system: RPMI-8226 leukemia
RXF 393 renal = system: RXF 393 renal
SF-268 CNS = system: SF-268 CNS
SF-295 CNS = system: SF-295 CNS
SF-539 CNS = system: SF-539 CNS
SK-MEL-2 melanoma = system: SK-MEL-2 melanoma
SK-MEL-28 melanoma = system: SK-MEL-28 melanoma
SK-MEL-5 melanoma = system: SK-MEL-5 melanoma
SK-OV-3 ovarian = system: SK-OV-3 ovarian
SN12C renal = system: SN12C renal
SNB-19 CNS = system: SNB-19 CNS
SNB-75 CNS = system: SNB-75 CNS
SR leukemia = system: SR leukemia
SW-620 colon = system: SW-620 colon
T-47D breast = system: T-47D breast
TK-10 renal = system: TK-10 renal
U251 CNS = system: U251 CNS
UACC-257 melanoma = system: UACC-257 melanoma
UACC-62 melanoma = system: UACC-62 melanoma
UO-31 renal = system: UO-31 renal
DLD-1 colon = system: DLD-1 colon
DMS 114 small cell lung = system: DMS 114 small cell lung
DMS 273 small cell lung = system: DMS 273 small cell lung
KM20L2 colon = system: KM20L2 colon
LXFL 529 NSCLC = system: LXFL 529 NSCLC
M19-MEL melanoma = system: M19-MEL melanoma
RXF-631 renal = system: RXF-631 renal
SNB-78 CNS = system: SNB-78 CNS
XF 498 CNS = system: XF 498 CNS

Structure (SMILES): Cc1ccc(/C(O)=C/c2nc3ccc([N+](=O)[O-])cc3nc2/C=C(\O)c2ccc(C)cc2)cc1
- TGI (786-0 renal): > 100 µM
- TGI (A498 renal): > 100 µM
- TGI (A549 NSCLC): > 100 µM
- TGI (ACHN renal): > 100 µM
- TGI (BT-549 breast): > 100 µM
- TGI (CAKI-1 renal): > 100 µM
- TGI (CCRF-CEM leukemia): > 100 µM
- TGI (COLO 205 colon): > 100 µM
- TGI (DU-145 prostate): > 100 µM
- TGI (EKVX NSCLC): > 100 µM
- TGI (HCC-2998 colon): > 100 µM
- TGI (HCT-116 colon): > 100 µM
- TGI (HCT-15 colon): > 100 µM
- TGI (HL-60(TB) leukemia): > 100 µM
- TGI (HOP-62 NSCLC): 75.8 µM
- TGI (HOP-92 NSCLC): > 100 µM
- TGI (HS 578T breast): > 91.4 µM
- TGI (HT29 colon): > 100 µM
- TGI (IGROV1 ovarian): > 100 µM
- TGI (K-562 leukemia): > 100 µM
- TGI (KM12 colon): > 100 µM
- TGI (LOX IMVI melanoma): > 100 µM
- TGI (M14 melanoma): > 100 µM
- TGI (MALME-3M melanoma): > 100 µM
- TGI (MCF7 breast): > 100 µM
- TGI (MDA-MB-231 breast): > 100 µM
- TGI (MDA-MB-435): > 100 µM
- TGI (MDA-N): > 100 µM
- TGI (MOLT-4 leukemia): > 100 µM
- TGI (NCI-H226 lung): > 100 µM
- TGI (NCI-H23 lung): > 100 µM
- TGI (NCI-H460 lung): > 100 µM
- TGI (NCI-H522 lung): > 100 µM
- TGI (NCI/ADR-RES ovarian): > 100 µM
- TGI (OVCAR-3 ovarian): > 100 µM
- TGI (OVCAR-4 ovarian): > 100 µM
- TGI (OVCAR-5 ovarian): > 100 µM
- TGI (OVCAR-8 ovarian): > 100 µM
- TGI (PC-3 prostate): > 100 µM
- TGI (RPMI-8226 leukemia): > 100 µM
- TGI (RXF 393 renal): > 77.5 µM
- TGI (SF-268 CNS): > 100 µM
- TGI (SF-295 CNS): > 100 µM
- TGI (SF-539 CNS): > 100 µM
- TGI (SK-MEL-2 melanoma): > 100 µM
- TGI (SK-MEL-28 melanoma): > 100 µM
- TGI (SK-MEL-5 melanoma): > 100 µM
- TGI (SK-OV-3 ovarian): 97.6 µM
- TGI (SN12C renal): > 100 µM
- TGI (SNB-19 CNS): > 77.1 µM
- TGI (SNB-75 CNS): 36.8 µM
- TGI (SR leukemia): > 100 µM
- TGI (SW-620 colon): > 100 µM
- TGI (T-47D breast): > 100 µM
- TGI (TK-10 renal): > 100 µM
- TGI (U251 CNS): > 100 µM
- TGI (UACC-257 melanoma): > 100 µM
- TGI (UACC-62 melanoma): > 69.3 µM
- TGI (UO-31 renal): > 100 µM

Structure (SMILES): O=C1c2ccccc2C(=O)c2nc3ccc(Cl)cc3cc21
- TGI (786-0 renal): > 100 µM
- TGI (A549 NSCLC): > 100 µM
- TGI (ACHN renal): > 100 µM
- TGI (CAKI-1 renal): > 100 µM
- TGI (CCRF-CEM leukemia): > 100 µM
- TGI (COLO 205 colon): > 100 µM
- TGI (DLD-1 colon): > 100 µM
- TGI (DMS 114 small cell lung): > 100 µM
- TGI (DMS 273 small cell lung): > 100 µM
- TGI (EKVX NSCLC): > 100 µM
- TGI (HCC-2998 colon): > 100 µM
- TGI (HCT-116 colon): > 100 µM
- TGI (HCT-15 colon): > 100 µM
- TGI (HOP-62 NSCLC): > 100 µM
- TGI (HOP-92 NSCLC): > 100 µM
- TGI (HT29 colon): > 100 µM
- TGI (IGROV1 ovarian): > 100 µM
- TGI (K-562 leukemia): > 100 µM
- TGI (KM12 colon): > 100 µM
- TGI (KM20L2 colon): > 100 µM
- TGI (LOX IMVI melanoma): > 100 µM
- TGI (LXFL 529 NSCLC): > 100 µM
- TGI (M14 melanoma): > 100 µM
- TGI (M19-MEL melanoma): > 100 µM
- TGI (MALME-3M melanoma): > 100 µM
- TGI (MOLT-4 leukemia): > 100 µM
- TGI (NCI-H226 lung): > 100 µM
- TGI (NCI-H23 lung): > 100 µM
- TGI (NCI-H460 lung): > 100 µM
- TGI (NCI-H522 lung): > 100 µM
- TGI (OVCAR-3 ovarian): > 100 µM
- TGI (OVCAR-4 ovarian): > 100 µM
- TGI (OVCAR-5 ovarian): > 100 µM
- TGI (OVCAR-8 ovarian): > 100 µM
- TGI (RPMI-8226 leukemia): > 100 µM
- TGI (RXF-631 renal): > 100 µM
- TGI (SF-268 CNS): > 100 µM
- TGI (SF-295 CNS): > 100 µM
- TGI (SF-539 CNS): > 100 µM
- TGI (SK-MEL-2 melanoma): > 100 µM
- TGI (SK-MEL-28 melanoma): > 100 µM
- TGI (SK-MEL-5 melanoma): > 100 µM
- TGI (SK-OV-3 ovarian): > 100 µM
- TGI (SN12C renal): > 100 µM
- TGI (SNB-19 CNS): > 100 µM
- TGI (SNB-75 CNS): > 100 µM
- TGI (SNB-78 CNS): > 100 µM
- TGI (SR leukemia): > 100 µM
- TGI (SW-620 colon): > 100 µM
- TGI (TK-10 renal): > 100 µM
- TGI (U251 CNS): > 100 µM
- TGI (UACC-62 melanoma): > 100 µM
- TGI (UO-31 renal): > 100 µM
- TGI (XF 498 CNS): > 100 µM
